This note sets out measurements from ChEMBL document CHEMBL1148430, “Synthesis of novel 2-nitroimidazole-tethered tricyclic quinolines, bearing a second heteroatom, and their in vitro evaluation as hypoxia-selective cytotoxins and radiosensitizers” (Bioorg Med Chem Lett, 2004).

Data set [1] is described as follows: In vitro therapeutic index of compound was measured inV79 cells. It is filed as cell-based, Cricetulus griseus. The settings on record: chinese hamster, V79 cells; read-out: T.I.
The nature of data set [2]: Ratio (HS) of CT50 values in aerobic condition to hypoxic condition (in N2 presence) given as CT50(A)/CT50(H). It is filed as functional.
Data set [3] concerns V79. As to the kind of experiment: Cytotoxicity of compound was measured against suspended V79 cells under hypoxic conditions in clonogenic assay. Type of data set: functional, Cricetulus griseus.
Data set [4] can be described thus: Partition coefficient in octanol/water. It is filed as physicochemical.
In data set [5] the test system is V79. The data set is described as follows: Cytotoxicity of compound was measured against suspended V79 cells under aerobic conditions in clonogenic assay. Type of data set: functional, Cricetulus griseus.
The nature of data set [6]: Concentration required to reduce fluorescence in ethidium bromide displacement assay using EB-DNA complex.

For `Cl.O=[N+]([O-])c1nccn1CCCNc1c2c(nc3ccccc13)CCCC2`, the selectivity ratio in data set [1] amounted to 20. The Ratio in data set [2] amounted to 11. Moreover, the CT50 with V79 [3] was found to be 33 µM; in the data set on V79 [5] it was 360 µM. Further, the PC in data set [4] was 0.14. Besides, the C50 in data set [6] was 58 µM.
Take `Cl.O=[N+]([O-])c1nccn1CCCNc1c2ccccc2nc2ccccc12`: the selectivity ratio in data set [1] is 11. Further, in data set [2], the Ratio turned out to be 5.5. Besides, the figures for the CT50 in the data set with V79 [3] and in the data set with V79 [5] were 15 µM and 84 µM, respectively. In data set [4], this compound showed a PC of 0.07. This compound gave a C50 in data set [6] of 9 µM.
Consider `CN1CCc2nc3ccccc3c(NCCCn3ccnc3[N+](=O)[O-])c2C1.Cl`, for which the selectivity ratio in data set [1] is 7. For the same compound, the Ratio in data set [2] was 2.2. In data set [4], this compound registered a PC of 0.41. In the data set on V79 [5], the CT50 worked out at 426 µM. The compound also registered a C50 in data set [6] of 45 µM.
As to `Cl.O=[N+]([O-])c1nccn1CCCNc1c2c(nc3ccccc13)CCSC2`, in data set [1], the selectivity ratio is 15. Moreover, the Ratio in data set [2] amounted to 9. Further, the CT50 was 68 µM in the data set with V79 [3] and 580 µM in the data set with V79 [5]. Also, in data set [4], the PC is 0.4. In data set [6], this compound showed a C50 of 58 µM.
